We go through 5 compounds from patent US5319097A, “Pharmaceutical agents” (Imperial Chemical Industries PLC, priority 1990, dated 1994).

A short description of data set [1]: Comparison of bioavailability in dogs (compositions with polyvinylpyrrolidone and forms A, B and X). It is filed as in vivo. The conditions noted are these: 20 mg tablet with polyvinylpyrrolidone. An excerpt: During each study period, blood samples were periodically obtained from each animal and the concentration of compound 1 determined.
Data set [2] is described as follows: Physical stability of the physical forms / conversion between forms. It is filed as physicochemical.
Data set [3] can be described thus: Bioavailability of physical forms and compositions (general statement). The following applies: in vivo.
Data set [4] in a line: Acute toxicity study, rats. The conditions noted are these: rat, in vivo. An excerpt:
(§1) Acute toxicity studies have been conducted on compound 1 in order to obtain LD50 values.

The nature of data set [5]: Recent clinical trials, oral administration to asthmatic patients. The format is in vivo. The following applies: administered orally to asthmatic patients. From the text: This ability of compound 1 to be effective when administered orally is unusual and highly desirable.
The nature of a further data set: Solubility in water. It is filed as physicochemical.
Data set [6] is described as follows: Acute toxicity study, mice. The conditions noted are these: mouse, in vivo.
Description: as §1

Where two headings read alike, the source gives them in different places.

For `COc1cc(C(=O)NS(=O)(=O)c2ccccc2C)ccc1Cc1cn(C)c2ccc(NC(=O)OC3CCCC3)cc12` [Form X], in data set [1], the Area under curve was 1307 ng·h/mL, the Half-life is 3.590 h and the Maximum concentration was determined as 0.314 µg/mL. In data set [2], the physical stability entry is listed as “physically stable”. The bioavailability entry in data set [3] is given as “relatively poor bioavailability”.
In data set [1], `COc1cc(C(=O)NS(=O)(=O)c2ccccc2C)ccc1Cc1cn(C)c2ccc(NC(=O)OC3CCCC3)cc12` [Form B, N-[4-[5-(cyclopentyloxycarbonyl)amino-l-methylindol-3-yl-methyl]-3-methoxybenzoyl]-2-methylbenzenesulphonamide] gave an Area under curve of 773 ng·h/mL, a Half-life of 3.524 h and a Maximum concentration of 0.105 µg/mL. In addition, the “temperature above which form B loses water” value in data set [2] is “above 60 °C”.
In data set [1], `COc1cc(C(=O)NS(=O)(=O)c2ccccc2C)ccc1Cc1cn(C)c2ccc(NC(=O)OC3CCCC3)cc12` [Form A] gave an Area under curve of 4028 ng·h/mL and a Maximum concentration of 1.004 µg/mL. In data set [1] (dog, blood, po, 20 mg, read-out: Half-life (converted)), the Half-life is 5.4 h. In addition, in data set [2] (in compositions, high relative humidity and elevated temperatures), the “conversion of form A into form B” value is given as “conversion of form A into form B has been found to occur”. Also, the “stability of form A in the compositions” value in data set [2] (in the compositions according to the invention) is reported as “acceptably stable”. Besides, the “conversion into form B” value in data set [2] (in the presence of water) was “tends to convert into form B”. In data set [3], the bioavailability entry was “relatively good bioavailability”.
One may read the LD50 as the dose expected to kill half of the subjects tested. Low readings indicate greater toxicity, high ones lower toxicity. As for `COc1cc(C(=O)NS(=O)(=O)c2ccccc2C)ccc1Cc1cn(C)c2ccc(NC(=O)OC3CCCC3)cc12` [Compound 1, N-[4-[5-(cyclopentyloxycarbonyl)amino-l-methylindol-3-ylmethyl]-3-methoxybenzoyl]-2-methylbenzenesulphonamide], the LD50 in data set [4] and in data set [6] was greater than 500 mg/kg each time. For the same compound, the “effectiveness in the treatment of asthma” value in data set [5] is on record as “effective”. Moreover, the solubility in water result in the data set “Solubility in water” was “relatively poor solubility”.
Regarding `COc1cc(C(=O)NS(=O)(=O)c2ccccc2C)ccc1Cc1cn(C)c2ccc(NC(=O)OC3CCCC3)cc12` [forms B], the physical stability result in data set [2] was “physically stable”. Moreover, the bioavailability result in data set [3] is “relatively poor bioavailability”.
